Legend:
[1] = test system: islet allografts; experiment: Murine islet allotransplantation (BALB/c islets into STZ-treated C57BL/6 mice); type: in vivo
Method: Pancreatic islets from BALB/c mice were isolated by collagenase digestion and density gradient separation as previously described (33, 34). Subsequently, four to five hundred islets were inoculated under the renal capsule of each C57BL/6 recipient rendered diabetic with streptozotocin (STZ) (200 mg/kg, administered i.p. Sigma-Aldrich). Islet transplantation success was confirmed by glycaemia normalization. Rejection of islet allografts was defined as blood glucose levels >250 mg/dl for at least 2 consecutive days (35). Treatment modalities were the following: transplanted mice were intraperitoneally injected according to the following protocols: 1) Exendin-4 (Exe-4) (Amylin Pharmaceuticals, San Diego, CA -USA) 0.2pg twice/day for two weeks after transplant; 2) Exe-4 0.2pg twice/day from the day before until two weeks after transplant; 3) Exendin-4 2µg twice/day from the day before until two weeks after transplant; 4) Exendin-4 2µg twice/day + Exendin-9-39 (Exe-9) (Sigma-Aldrich) 2µg twice/day from the day before until two weeks after transplant; 5) Exendin-4 2µg twice/day from the day before until two weeks after transplant + Rapamycin 0.1mg/die for two weeks; 6) saline 0.5ml twice/day for two weeks. The follow-up of the transplanted mice was for 100 days.

[2] = test system: Cardiac allografts; experiment: Murine cardiac allotransplantation (BALB/c hearts into C57BL/6 mice); type: in vivo
Method: Cardiac allografts from BALB/c mice were transplanted intra-abdominally in C57BL/6 mice using microsurgical techniques as described (31). Rejection was determined as complete cessation of cardiac contractility and was confirmed by direct visualization. Transplanted mice were intraperitoneally injected according to the following protocols: 1) Exendin-4 (Exe-4) (Amylin Pharmaceuticals, San Diego, CA - USA) 0.2pg twice/day for two weeks after transplant; 2) Exe-4 0.2pg twice/day from the day before until two weeks after transplant; 3) Exe-4 2µg twice/day from the day before until two weeks after transplant; 4) Exe-4 2µg twice/day + Exendin-9-39 (Exe-9) (Sigma-Aldrich) 2µg twice/day from the day before until two weeks after transplant; 5) Exe-4 2µg twice/day from the day before until two weeks after transplant + Rapamycin 0.1mg/die for two weeks; 6) saline 0.5ml twice/day for two weeks.

[3] = test system: mitogen-stimulated murine splenocytes; experiment: IFN-γ ELISpot assay on anti-CD3/anti-CD28 stimulated splenocytes; type: cell-based, C57BL/6 mice; settings: Exe-4 at 0.1, 1 or 10 nM, soluble anti-CD3 and anti-CD28, 24 hours
Method: An ELISPOT assay was used to measure the number of IFN-γ-producing cells according to the manufacturer's protocol (BD Biosciences) as previously performed by our group (39). To test the role of GLP-1R-driven immunity on the anti-CD3/28 non-autoimmune specific response, 1×10^6 splenocytes isolated from C57BL/6 mice were cultured in a microwell plate (BD Biosciences) coated with IFN-y capture antibody (Ab) in the presence of the following soluble anti-CD3 and anti-CD28 at 0,5ug/ml for 24 hours. Exe-4 and/or Exe-4+Exe-9-39 at concentrations of 0.1, 1 or 10 nM were added to the culture. After 24 hours, bound secondary Ab was visualized using HRP-streptavidin and the AEC substrate kit (BD Biosciences). Spots were counted using an Immunospot analyzer (Cellular Technology Ltd., Cleveland, OH) and expressed as the number of cytokine-producing spots per 1×10^6 cells. After 24hours, ELISpot plates were developed and acquired on an ELISpot reader, as previously described.

[4] = test system: GLP-1R^pos and GLP-1R^neg CD3^+ T cells; experiment: Seahorse bioenergetic analysis, GLP-1Rpos and GLP-1Rneg CD3+ T cells; type: cell-based, C57BL/6 mice; settings: GLP-1R^pos CD3^+ T cells, Exe-4 (1 nM)
Method: Cellular Bioenergetics were analyzed using the Seahorse Extracellular Flux Analyzer Xfe96 (Agilent Technologies, Santa Clara, CA, United States), which simultaneously measures Oxygen Consumption Rate (OCR, pmolO2/min), ExtraCellular Acidification Rate (ECAR, mpH/min) and Proton Efflux Rate (PER, pmolH^+/min). For Seahorse experiments 150.000 cells either freshly isolated GLP-1R^pos or GLP-1R^neg CD3^+ T cells or activated with soluble anti-CD3/CD28 at 0.5 µg/ml each in the presence or not of Exe-4 (1 nM); in another setting untransduced mock CD3^+ T cells or pmY-GLP-1R CD3^+ T cells already activated with soluble anti-CD3/CD28 at 0.5 µg/ml each in the presence or not of Exe-4 (1 nM). Cells were resuspended in 50 µL assay medium (Agilent #103576-100 RPMI Medium pH7.4, supplemented with 10mM glucose, 2mM glutamine and 1mM Na-pyruvate) were seeded in each CellTak-precoated well of an Agilent Xfe96 Pro well plate. The cell plate was centrifuged 2 times at 40 × g (zero braking) for 1 minute. After centrifugation, 150 µL warm assay medium was gently added to each well. […]
Seahorse parameters were normalized to cell number in each well. To this purpose, at the end of the Seahorse analysis, cell nuclei were stained with Hoechst 33342 (1 µg/mL) for about 15 min, imaged and counted with Operetta CLS™ software Harmony, as previously described (43). […]

## Exendin-4 [Exe-4]
[1]; high doses of Exe-4 preceded by a pre-treatment
  recipients with prolongation of islet survival up to 100 days: 60%
[1]; high doses of Exe-4 preceded by a pre-treatment (2µg twice/day, i.p.), p<0.001 vs untreated
  [MST] (islet allograft survival): 67 days
[1]; islet allograft at day 14, Exe-4-treated mice
  graft infiltration (Hematoxylin and eosin staining): decreased graft infiltration
[1]; low dose of Exe-4
  recipients with prolongation of islet survival up to 100 days: 20%
[1]; low dose of Exe-4 (b66 prints 0.2pg twice/day, i.p.), untreated [MST]=12 days, p=0.001
  [MST] (islet allograft survival): 41 days
[1]; splenic, Exe-4 treatment
  CD8^+ effector memory cells: reduction
  Treg lymphocytes: significant increase
[2]; day-7 heart allograft, Exe-4-treated mice
  graft infiltration (Hematoxylin and eosin staining): decrease of graft infiltration
[2]; first of three Exe-4 regimens listed 'respectively' (low or high dose, preceded or not with pre-treatment), untreated [MST]=7 days, p<0.01
  [MST] (cardiac allograft survival): 9 days
[2]; second of three Exe-4 regimens listed 'respectively', p<0.01 vs untreated
  [MST] (cardiac allograft survival): 10 days
[2]; splenic, Exe-4-treated mice
  CD4^+ and CD8^+ effector T cells: significant decrease
  Tregs: no effect
[2]; third of three Exe-4 regimens listed 'respectively', p<0.01 vs untreated
  [MST] (cardiac allograft survival): 10 days
[3]
  number of IFN-y producing cells: significantly reduced
[4]
  mitochondrial ATP production: no effect
  mitochondrial respiration (OCR values, maximal OXPHOS): slightly increased
